Source: PubChem BioAssay AID179 (DTP/NCI, 2004)
The source made the active and inactive calls.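 The calls were made as follows: active = compounds giving half or more protection of infected cells from virus-caused growth loss, again on retest; inactive = the rest.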 Where a SMILES comes first, the peptide text is derived from it. [ ]: non-standard residue; d: D form. The star is where a group is joined. ξ: configuration not given here. NMeF = CN[C@@H](Cc1ccccc1)C(=O)O; NMeV = CN[C@H](C(=O)O)C(C)C; ξNMeN = CNC(CC(N)=O)C(=O)O; NMeA = CN[C@@H](C)C(=O)O; ξNMeV = CNC(C(=O)O)C(C)C; Boc = CC(C)(C)OC(=O)*

Tested on: CEM cells HIV-1 protection, formazan growth assay
Assay: NCI AIDS Antiviral Assay
Conditions: for IC50: measured here: growth of uninfected CEM cells
Method in brief: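 Protection of CEM cells against HIV-1 was scored from cell growth (soluble formazan) across five concentrations, with parallel uninfected cells. Lack of protection may reflect toxicity.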

SMILES | EC50 [µM] | IC50 [µM] | outcome
COC(=O)[C@H](Cc1ccccc1)NC(=O)N1CCN(C(=O)N[C@@H](Cc2ccccc2)C(=O)OC)CCN(C(=O)N[C@@H](Cc2ccccc2)C(=O)OC)CC1 | > 200 | > 200 | –
Cc1nn2c(C(=O)O)nnc2s1 | > 200 | > 200 | –
Cc1c(-c2ccccc2)c(-c2ccc(OCCN(C)C)cc2)n2ccccc12 | > 200 | 10 | –
O=c1ncc2[nH]c(=S)[nH]c2[nH]1 | > 200 | > 200 | –
C=CC(C)(C)n1cc(C2=C(O)C(=O)C(c3cn(C(C)(C)C=C)c4ccccc34)=C(OC(C)=O)C2=O)c2ccccc21 | > 20 | 1.07 | –
COc1cc(CNc2nc3ccccc3nc2C(=O)O)cc(OC)c1OC | > 200 | 74.1 | –
C/C(=N/Nc1ccc([N+](=O)[O-])cc1[N+](=O)[O-])C(CC(C(=O)Nc1ccccc1C)/C(C)=N\Nc1ccc([N+](=O)[O-])cc1[N+](=O)[O-])C(=O)Nc1ccccc1C (centres undefined) | > 9.55 | > 9.55 | –
Nc1c(N2CCCCC2)c(=O)nc2[nH]/c(=C\c3ccccc3)c(=O)n12 | > 200 | 95.5 | –
Cn1c(NS(=O)(=O)c2ccccc2)nc2ccccc21 | > 200 | > 200 | –
COc1cc(/C=C2/SC(c3ccccc3)N(c3ccccc3Cl)C2=O)cc(OC)c1OC (centres undefined) | > 200 | 43.7 | –
CCc1c(O)c(O)c(C(C)=O)c2c(O)c(-c3c(C)cc4c(CC)c(O)c(O)c(C(C)=O)c4c3O)c(C)cc12 | > 69.2 | 2.24 | –
CC1=CC(C)(C)NC(=S)N1CCO | – | – | inactive
NCCCNCCNCCCN | > 200 | > 200 | –
c1ccc(/N=N/c2ccccn2)nc1 | > 200 | > 200 | –
O=C1CCN2CCCC1C2 (centres undefined) | > 1410 | 1290 | –
O=C(NC(=Nc1ccccc1)SCCSC(=Nc1ccccc1)NC(=O)c1cccs1)c1cccs1 | > 3.63 | > 3.63 | –
CC(C)CCC[C@@H](C)C1CCC2[C@@H]3CCC4C[C@@H](CCC=C(c5cc(Cl)c(O)c(C(=O)O)c5)c5cc(Cl)c(O)c(C(=O)O)c5)CC[C@]4(C)C3CC[C@@]21C (some centres undefined) | 32.4 | > 100 | –
CC(O)C1=CCC2c3[nH]c4ccccc4c3CCN2C1 (centres undefined) | > 23.4 | > 23.4 | –
CC1OC(OCC2OC(Oc3c(-c4ccc(O)cc4)oc4cc(O)cc(O)c4c3=O)C(OC3OC(C)C(O)C(O)C3O)C(O)C2O)C(O)C(O)C1O (centres undefined) | > 339 | > 339 | –
CC1=C[C@@]2(C=C(C(=O)O)[C@@]34CCCC(C)(C)C3C[C@@H]2OC4)OC1=O (some centres undefined) | > 380 | > 380 | –
CC1(C)COP(Oc2ccccc2)OC1 | > 200 | > 200 | –
C/C(=C1/N=C(c2cc([N+](=O)[O-])ccc2Cl)N(c2ccc(Br)cc2)C1=O)c1ccc(N(CCC#N)CCC#N)cc1C | > 11.5 | > 11.5 | –
O=C(N=Nc1ccc(Cl)cc1Cl)NNc1ccc(Cl)cc1Cl | > 200 | 57.5 | –
Cc1cn(C2CC(N=[N+]=[N-])C(COC(=O)CCCCCCCCCCCc3ccccc3)O2)c(=O)[nH]c1=O (centres undefined) | 0.0955 | 89.1 | –
CC(NC(=O)CNC(=O)C(N)CO)C(=O)NC(CCC(=O)O)C(=O)NC(CCCCN)C(=O)N1CCCC1C(=O)NC(CCC(=O)O)C(=O)NC(CCCCN)C(=O)NC(CCC(=O)O)C(=O)NC(CCCN=C(N)N)C(=O)NC(CO)C(=O)NC(Cc1ccc(O)cc1)C(=O)NC(C)C(=O)NC(Cc1cnc[nH]1)C(=O)NC(CO)C(=O)O (centres undefined) (H-SGAEKPEKERSYAHS-OH; configuration not given here) | > 100 | > 100 | –
N=c1o[n-][n+](-c2ccccc2)c1-c1ccccc1 | – | – | inactive

SMILES | EC50 [µM] | IC50 [µM] | outcome
COc1cc(O)c(C(=O)CC(C)=O)c(OC)c1 | > 398 | 174 | –
CCOC(=O)/C(=C\c1ccc(C#N)cc1)C(C)=O | > 148 | 77.6 | –
CC(NC(=O)C(=O)N/N=C1\CC(c2ccccc2)Oc2ccccc21)c1ccccc1 (centres undefined) | – | – | inactive
CC(=O)C1(Cc2cccc3ccccc23)S(=O)(=O)OCCOS1(=O)=O | > 200 | 110 | –
COC(=O)CC(SCCO)SCCO | > 200 | > 200 | –
O=C1C(=O)N(c2cc(Cl)ccc2Cl)C(=O)C(=O)C1c1nc2ccccc2o1 | > 24.5 | > 24.5 | –
COc1cc2c(cc1OC)C(=O)/C(=C/c1ccc(N(C)C)cc1)CC2 | > 155 | 110 | –
CC1CCCC2=C1C(c1ccc(Cl)cc1)n1c(s/c(=C\c3ccc(Cl)cc3)c1=O)=N2 (centres undefined) | – | – | inactive
C=C1C(=O)[C@]23C[C@H]1CC[C@H]2[C@@]12CO[C@@H](O)[C@@H]1C(C)(C)[C@@H](O)C[C@@H]2OC3=O | > 692 | 26.3 | –
c1ccc(-c2csc3c2-n2cccc2C3N2CCCC2)cc1 (centres undefined) | > 200 | 13.5 | –
O=c1oc2cc(O)ccc2c2oc3cc(O)ccc3c12 | > 0.513 | 0.0162 | –
Cc1cc(=O)oc2c3c(ccc12)OC(C)(C)[C@H](OC(=O)C12CCC(C)(C(=O)O1)C2(C)C)[C@@H]3OC(=O)C12CCC(C)(C(=O)O1)C2(C)C (some centres undefined) | 0.0759 | > 200 | –
C[C@H]1NC(=O)C2CCCCN2C(=O)CN(C)C(=O)CNC(=O)C2CCCCN2C(=O)[C@@H](NC(=O)c2nc3ccccc3cc2O)[C@@H](C)NC(=O)C2CCCCN2C(=O)CN(C)C(=O)CNC(=O)[C@@H]2CCCCN2C(=O)C1NC(=O)c1nc2ccccc2cc1O (some centres undefined) | > 10.5 | 0.0427 | –
C=C1C2CCCC1C1(S(C)(=O)=O)CCCCC21O (centres undefined) | – | – | inactive
C/C(=N\NC(=S)NC(C)(C)C)c1ccccn1 | > 200 | 0.0631 | –
CC1=CC(=Nc2cccc3c(N=C4C=C(C)C(=O)O4)cccc23)OC1=O | > 200 | 1.41 | –
CC1C(c2ccccc2)OC(N2CCOCC2)C(C)(C)CN1C (centres undefined) | > 200 | > 200 | –
CC1(C)S[C@H](CN)N[C@H]1C(=O)OC(c1ccccc1)c1ccccc1 | > 200 | 60.3 | –
O=C(CCc1n[nH]c(=S)o1)Nc1cc(Cl)c(Cl)cc1Cl | – | – | inactive
COC(=O)C[C@](O)(CCCC(C)(C)O)C(=O)O[C@@H]1C(OC)=C[C@]23CCCN2CCc2cc4c(cc2[C@H]13)OCO4 | > 2.29 | 0.0138 | –
CNc1[nH]c(=S)nc2sc3c(c12)CCCC3 | > 151 | 112 | –
Nc1ccc2c(c1)CC1c3ccccc3C(C2)c2ccccc21 | – | – | inactive
C[C@]1(CO)CCC[C@@]2(C)C1CC[C@H]1CC3C[C@]12CC[C@]3(C)O (some centres undefined) | > 23.4 | > 23.4 | –
O=C(O)c1cc(=O)c2[nH]c3ccccc3c2s1 | – | – | inactive
CCCCOC(=O)C(=O)/C(=C/N1C(=O)/C(=C/C(C)=C/c2ccccc2)SC1=S)C(=O)C=C(C)C | > 100 | 14.8 | –
Brc1ccccc2cc(-c3ccccc3)nc1-2 | – | – | inactive

SMILES | EC50 [µM] | IC50 [µM] | outcome
C[C@@H]1Cc2c(-c3cc(-c4cc(-c5c(O)cc(O)c6c5C[C@@H](C)N[C@@H]6C)c5ccccc5c4O)c(O)c4ccccc34)c(O)cc(O)c2[C@@H](C)N1 | 115 | > 200 | –
COc1ccc(/C=C/c2ccc3ccccc3[n+]2C)cc1OC | 0.0631 | 52.5 | –
CN(CCO)c1nc(=O)c2c(n1C1OC(CO)C(O)C(O)C1O)CCCC2 (centres undefined) | > 339 | > 339 | –
Nc1ccc(N=Nc2ccc(-c3ccc(O)cc3)cc2)c2ccc(S(=O)(=O)O)cc12 | 7.94 | > 200 | –
Cc1ccc(C2(C)CCC(C(C)(C)O)OO2)cc1 (centres undefined) | – | – | inactive
CCOC(=O)C1(N)CC1 | > 200 | > 200 | –
O=C1[C@@H]2C(c3c(Cl)cccc3Cl)=NO[C@@H]2C(=O)N1c1ccc(Cc2ccc(N3C(=O)[C@H]4C(c5c(Cl)cccc5Cl)=NO[C@H]4C3=O)cc2)cc1 | > 35.5 | > 35.5 | –
c1ccc2cc3c(cc2c1)Cn1c-3nc2ccccc21 | > 200 | > 200 | –
COc1ccc(/C=C/c2nc(=S)[nH][nH]2)cc1 | > 214 | > 214 | –
COC(=O)C1=C(C)NC(CF)=C(C(=O)OC)C1c1cccc2c(=O)c3ccccc3oc12 (centres undefined) | > 200 | 3.47 | –
Cc1ccc2c(c1)C1(SCCC(=O)N1c1ccc(Cl)cc1)C(=O)N2 (centres undefined) | > 191 | 91.2 | –
Cc1cc(CO)c(O)c(CNCc2cc(C)cc(CO)c2O)c1 | > 200 | 8.71 | –
O=C1C(=O)c2ccccc2C(O)=C1C(C1=C(O)c2ccccc2C(=O)C1=O)c1ccc(Cl)cc1 | > 200 | 37.2 | –
COC(=O)[C@H](C)N(C)C(=O)C(CC(N)=O)N(C)C(=O)[C@H](Cc1ccccc1)N(C)C(=O)[C@@H]1CCCN1C(=O)[C@H](C(C)C)N(C)C(=O)C(C(C)C)N(C)C(=O)[C@@H](NC(=O)OC(C)(C)C)C(C)C (some centres undefined) (Boc-V[ξNMeV][NMeV]P[NMeF][ξNMeN][NMeA]-OMe) | > 53.7 | 50.1 | –
CC(C)C1=CC2=C(C(=O)C1=O)C13CCCC(C)(C)C1CC2OC3=O (centres undefined) | > 79.4 | 28.2 | –
C=CC(C)(C)C12CC3C(=O)N/C(=C\c4cnc[nH]4)C(=O)N3C1Nc1ccccc12 (centres undefined) | > 200 | 91.2 | –
CCOC(=O)c1cc2ccccc2cc(C(=O)OCC)c1=O | > 200 | 34.7 | –
O=[N+]([O-])c1ccc2c(c1)Sc1ccccc1N2CCCCCl | > 200 | 19.1 | –
CCC(=O)OC1CCn2c1nc1c2C(=O)C(C)=C(N2CC2)C1=O (centres undefined) | > 200 | 0.575 | –
CCCCCCCCCCCCCCCC(=O)Nc1ccn(C2CCC(COP(=O)(O)O)O2)c(=O)n1 (centres undefined) | 1.58 | 50.1 | –
O=C1/C(=C/c2cccc(Cl)c2)Cc2ccccc21 | > 28.2 | > 28.2 | –
CC(=O)/C(=C/c1ccc(C#N)cc1)C(=O)c1ccccc1 | > 95.5 | 16.6 | –
Oc1ccc2ccccc2c1N=Nc1ccsc1 | > 20.4 | > 20.4 | –
O=C1OC2CS(=O)CC2O1 (centres undefined) | > 1550 | > 1550 | –
COC(OC)c1cccc2c1C1(O)CCC3(CC21)OCCCCO3 (centres undefined) | > 200 | > 200 | –
